Data: patent publication US20100041089A1, “IMPROVED METHOD FOR DETECTING CHEMICAL […]” (priority 2006, published 2010)

Tested on: yeast genes (expressed mRNA)
Assay: DNA chip measurement of expressed mRNA of yeast genes after culture with a toxic chemical substance
Format: cell-based, Saccharomyces cerevisiae S288C
Experimental: Yeast (Saccharomyces cerevisiae S288C (a SUC2mal mel gap2 CUP1)) were cultured at 25° C. on YPD medium (yeast extract 1%, polypeptone 2%, glucose 2%). One of toxic chemical substances was added to the cell at logarithmic growth phase, and the cell was further cultured for two hours. Cell was cultured without any chemical substance in the same condition, and was used as a control. Concentrations of the chemical substances were defined to inhibit the growth of the yeast but not lead to death.
After the completion of cultivation, the culture was centrifuged to collect the cells. To the cells, sodium acetate buffer (50 mM sodium acetate, 10 mM EDTA, 1% SDS) was added, and the mixture was shaken at 65° C. for five minutes, followed by returning to room temperature, and obtaining the supernatant, which procedure was repeated two times. To the supernatant, ½ amount of a solution of phenol/chloroform (1:1) was added, and the mixture was centrifuged to give a supernatant, an equal amount of chloroform was added, and the mixture was centrifuged to give a supernatant. To the supernatant, an equal amount of isopropanol containing 0.3 M sodium acetate was added, and the mixture was allowed to stand at room temperature for 30 minutes, after which the mixture was centrifuged to give sediment of the whole RNAs. Seventy % ethanol was added to the sediment, and the mixture was again centrifuged to give sediment, which was then dried and dissolved in water. mRNA was isolated from the whole RNAs as followings. In view of the fact that a poly A chain is attached to the 3′ terminus of mRNA, a polynucleotide having a poly T structure which was immobilized on the surface of latex beads was used to trap the mRNA, and then the mRNA was washed and eluted with spine column (Oligotex-dT30<Super>mRNA Purification Kit, Takara). Reverse transcription of the mRNA was conducted with a reverse transcriptase (Super Script II Reverse Transcriptase; catalogue No. 18064-014, GibcoBRL) using fluorescence-labeled nucleotides to give cDNAs that were introduced with Cy3-dUTP or Cy5-dUTP during the reverse transcription.
The labeled cDNAs were dissolved in TE buffer (10 mM Tris-HCl/1 mM EDTA, pH 8.0), and the solution was dropped on the DNA chip containing the whole genes of yeast (DNA Chip Research Inc. Japan) so that the cDNAs were hybridized on the DNA chip at 65° C. for over 12 hours. The fluoresces intensity of the DNA chip was read with a scanner, and the ratio relative to the fluorescence intensity resulting from the absence of chemical substance was estimated as the following, which is shown in Tables 1 to 9.
In the Tables, “Intensity” indicated in the rightmost column is a value of the level of expressed mRNA of each gene in control cells as divided by the average level of the expressions of the whole genes. A gene of which mRNA level is lower in control, and is higher in cases of addition of chemical substance, is especially useful in the detection of toxic substances.
Here, when a ratio of an amount of mRNA expressed in the presence of the chemical substance to an amount of mRNA expressed in the absence of the chemical substance is two or more, then it is considered significant.

SMILES: Oc1cc(Cl)c(Cl)cc1Cl [(6), 2,4,5-Trichlorophenol]
- The level of expressed mRNA in the presence of chemical substance/The level of expressed mRNA in the absence of chemical substance (yeast gene YJR054W, cultured two hours with substance): 0.7
- The level of expressed mRNA in the presence of chemical substance/The level of expressed mRNA in the absence of chemical substance (yeast gene YKL039W): 4.9
- The level of expressed mRNA in the presence of chemical substance/The level of expressed mRNA in the absence of chemical substance (yeast gene YKL071W, cultured two hours with substance): 18.6
- The level of expressed mRNA in the presence of chemical substance/The level of expressed mRNA in the absence of chemical substance (yeast gene YKL086W, cultured two hours with substance): 1.0
- The level of expressed mRNA in the presence of chemical substance/The level of expressed mRNA in the absence of chemical substance (yeast gene YKL151C, cultured two hours with substance): 2.0
- The level of expressed mRNA in the presence of chemical substance/The level of expressed mRNA in the absence of chemical substance (yeast gene YKL153W, cultured two hours with substance): 2.9
- The level of expressed mRNA in the presence of chemical substance/The level of expressed mRNA in the absence of chemical substance (yeast gene YKL195W, cultured two hours with substance): 2.5
- The level of expressed mRNA in the presence of chemical substance/The level of expressed mRNA in the absence of chemical substance (yeast gene YKR076W): 4.7
- The level of expressed mRNA in the presence of chemical substance/The level of expressed mRNA in the absence of chemical substance (yeast gene YKR091W, cultured two hours with substance): 1.0
- The level of expressed mRNA in the presence of chemical substance/The level of expressed mRNA in the absence of chemical substance (yeast gene YLR054C, cultured two hours with substance): 1.2
- The level of expressed mRNA in the presence of chemical substance/The level of expressed mRNA in the absence of chemical substance (yeast gene YLR149C, cultured two hours with substance): 1.4
- The level of expressed mRNA in the presence of chemical substance/The level of expressed mRNA in the absence of chemical substance (yeast gene YLR152C, cultured two hours with substance): 2.1
- The level of expressed mRNA in the presence of chemical substance/The level of expressed mRNA in the absence of chemical substance (yeast gene YLR194C, cultured two hours with substance): 0.9
- The level of expressed mRNA in the presence of chemical substance/The level of expressed mRNA in the absence of chemical substance (yeast gene YLR280C, cultured two hours with substance): 0.9
- The level of expressed mRNA in the presence of chemical substance/The level of expressed mRNA in the absence of chemical substance (yeast gene YLR324W, cultured two hours with substance): 1.2
- The level of expressed mRNA in the presence of chemical substance/The level of expressed mRNA in the absence of chemical substance (yeast gene YLR350W, cultured two hours with substance): 1.6
- The level of expressed mRNA in the presence of chemical substance/The level of expressed mRNA in the absence of chemical substance (yeast gene YLR387C, cultured two hours with substance): 1.9
- The level of expressed mRNA in the presence of chemical substance/The level of expressed mRNA in the absence of chemical substance (yeast gene YLR460C, cultured two hours with substance): 0.6
- The level of expressed mRNA in the presence of chemical substance/The level of expressed mRNA in the absence of chemical substance (yeast gene YML117W, cultured two hours with substance): 1.0
- The level of expressed mRNA in the presence of chemical substance/The level of expressed mRNA in the absence of chemical substance (yeast gene YML128C, cultured two hours with substance): 5.1
- The level of expressed mRNA in the presence of chemical substance/The level of expressed mRNA in the absence of chemical substance (yeast gene YMR009W, cultured two hours with substance): 1.2
- The level of expressed mRNA in the presence of chemical substance/The level of expressed mRNA in the absence of chemical substance (yeast gene YMR067C, cultured two hours with substance): 1.4
- The level of expressed mRNA in the presence of chemical substance/The level of expressed mRNA in the absence of chemical substance (yeast gene YMR090W, cultured two hours with substance): 3.8
- The level of expressed mRNA in the presence of chemical substance/The level of expressed mRNA in the absence of chemical substance (yeast gene YMR095C, cultured two hours with substance): 0.7
- The level of expressed mRNA in the presence of chemical substance/The level of expressed mRNA in the absence of chemical substance (yeast gene YMR097C, cultured two hours with substance): 1.2
- The level of expressed mRNA in the presence of chemical substance/The level of expressed mRNA in the absence of chemical substance (yeast gene YMR102C, cultured two hours with substance): 6.3
- The level of expressed mRNA in the presence of chemical substance/The level of expressed mRNA in the absence of chemical substance (yeast gene YMR107W, cultured two hours with substance): 1.0
- The level of expressed mRNA in the presence of chemical substance/The level of expressed mRNA in the absence of chemical substance (yeast gene YMR140W, cultured two hours with substance): 17.1
- The level of expressed mRNA in the presence of chemical substance/The level of expressed mRNA in the absence of chemical substance (yeast gene YMR173W (stress protein genes)): 5.0
- The level of expressed mRNA in the presence of chemical substance/The level of expressed mRNA in the absence of chemical substance (yeast gene YMR180C, cultured two hours with substance): 2.4
- The level of expressed mRNA in the presence of chemical substance/The level of expressed mRNA in the absence of chemical substance (yeast gene YMR184W, cultured two hours with substance): 0.9
- The level of expressed mRNA in the presence of chemical substance/The level of expressed mRNA in the absence of chemical substance (yeast gene YMR191W, cultured two hours with substance): 1.0
- The level of expressed mRNA in the presence of chemical substance/The level of expressed mRNA in the absence of chemical substance (yeast gene YMR295C, cultured two hours with substance): 1.9
- The level of expressed mRNA in the presence of chemical substance/The level of expressed mRNA in the absence of chemical substance (yeast gene YMR316W, cultured two hours with substance): 0.7
- The level of expressed mRNA in the presence of chemical substance/The level of expressed mRNA in the absence of chemical substance (yeast gene YNL044W, cultured two hours with substance): 0.9
- The level of expressed mRNA in the presence of chemical substance/The level of expressed mRNA in the absence of chemical substance (yeast gene YNL074C, cultured two hours with substance): 1.7
